Calls of active or inactive are those of the source. No cut-off for these calls is given here.
Tests used:
MDA-MB-468 [1] = experiment: Cell cycle arrest in human MDA-MB-468 cells assessed as accumulation at G0/G1 phase at 5 uM incubated for 72 hrs by propidium iodide staining-based flow cytometry analysis (reference value: 61.4%); type: functional
MDA-MB-468 [2] = experiment: Cell cycle arrest in human MDA-MB-468 cells assessed as accumulation at S phase at 10 uM incubated for 72 hrs by propidium iodide staining-based flow cytometry analysis (reference value: 21.1%); type: functional
MDA-MB-231 [3] = experiment: Antitumor activity against human MDA-MB-231 cells xenografted in BALB/c nude mouse assessed as reduction in CtIp expression at 40 to 80 mg/kg incubated for 30 to 40 mins by immunohistochemical analysis; type: functional, organism-based; conditions: dose 40-80 mg/kg, time 30-40 min
[4] = Toxicity in BALB/c nude mouse xenografted with human MDA-MB-468 cells assessed as morphological changes in liver at 40 to 80 mg/kg, ig administered daily for 16 days measured every 3 days by hematoxyin-eosin staining based analysis; type: organism-based; conditions: in vivo, po, 384 h, dose 40-80 mg/kg, time 16 day
MDA-MB-468 [5] = experiment: Induction of apoptosis in human MDA-MB-468 cells assessed as downregulation of Bcl-2 protein level at 20 uM incubated for 72 hrs by Western blot analysis; type: functional, cell-based
MDA-MB-468 [6] = experiment: Induction of DNA damage in human MDA-MB-468 cells assessed as up-regulation of gammaH2AX expression level at 5 to 20 uMby DAPI staining based immunofluorescence assay; type: functional, cell-based; conditions: dose 5-20 µM
[7] = molecular target: T1, Bromodomain-containing protein 4 (Homo sapiens, UniProt O60885); experiment: Inhibition of BRD4 (unknown origin)
[8] = Apparent volume of distribution in Sprague-Dawley rat at 1 mg/kg, iv; type: ADME, organism-based; conditions: in vivo
MDA-MB-468 [9] = experiment: Antiproliferative activity against human MDA-MB-468 cells assessed as reduction in cell viability incubated for 72 hrs by MTT assay; type: functional, cell-based; conditions: MDA-MB-468, 72 h
MDA-MB-231 [10] = experiment: Antitumor activity against human MDA-MB-231 cells xenografted in BALB/c nude mouse assessed as downregulation of PAR at 80 mg/kg by Western blot analysis; type: functional, organism-based
MDA-MB-468 [11] = experiment: Induction of apoptosis in human MDA-MB-468 cells assessed as up-regulation of Bax protein level at 20 uM incubated for 72 hrs by Western blot analysis; type: functional, cell-based
MDA-MB-231 [12] = experiment: Antitumor activity against human MDA-MB-231 cells xenografted in BALB/c nude mouse assessed as downregulation of BRD4 downstream protein at 40 mg/kg by Western blot analysis; type: functional, organism-based
MDA-MB-468 [13] = experiment: Induction of apoptosis in human MDA-MB-468 cells assessed as early apoptotic cells at 10 uM incubated for 72 hrs by annexin V/propidium iodide staining-based flow cytometry analysis (reference value: 4.07%); type: functional
[14] = molecular target: T1, Bromodomain-containing protein 4; experiment: Inhibition of BRD4 BD2 (unknown origin)
MDA-MB-231 [15] = experiment: Induction of DNA damage in human MDA-MB-231 cells assessed as increase in tail DNA measured at 5 to 20 uM after 3 days by comet assay; type: functional, cell-based; conditions: dose 5-20 µM, time 3.0 day
MDA-MB-468 [16] = experiment: Downregulation of PARP1 expression level in human MDA-MB-468 cells by Western blot analysis; type: functional, cell-based; conditions: dose 5-20 µM, DDE = dose-dependent effect
MDA-MB-468 [17] = experiment: Cell cycle arrest in human MDA-MB-468 cells assessed as accumulation at G0/G1 phase at 10 uM incubated for 72 hrs by propidium iodide staining-based flow cytometry analysis (reference value: 61.4%); type: functional
MDA-MB-468 [18] = experiment: Inhibition of homologous recombinant repair in human MDA-MB-468 cells assessed as down-regulation of CtlP expression at 5 to 20 uM in by Western blot analysis; type: functional, cell-based; conditions: dose 5-20 µM
[19] = Half life in Sprague-Dawley rat at 10 mg/kg, po; type: ADME, organism-based; conditions: in vivo
[20] = Oral bioavailability in Sprague-Dawley rat at 10 mg/kg; type: ADME, organism-based; conditions: in vivo
[21] = molecular target: T1, Bromodomain-containing protein 4; experiment: Inhibition of BRD4 (unknown origin) at 1 uM relative to control
[22] = Toxicity in BALB/c nude mouse xenografted with human MDA-MB-468 cells assessed as morphological changes in kidney at 80 mg/kg, ig administered daily for 16 days measured every 3 days by hematoxyin-eosin staining based analysis; type: organism-based; conditions: in vivo, po, 384 h, time 16 day
MDA-MB-468 [23] = experiment: Antitumor activity against human MDA-MB-468 cells xenografted in BALB/c nude mouse model assessed as tumor growth inhibition at 40 to 80 mg/kg, ig administered daily for 16 days measured every 3 days relative to control; type: functional; conditions: dose 40-80 mg/kg, time 16 day
MDA-MB-468 [24] = experiment: Downregulation of PAR expression level in human MDA-MB-468 cells by Western blot analysis; type: functional, cell-based; conditions: dose 5-20 µM, DDE = dose-dependent effect
[25] = molecular target: Poly [ADP-ribose] polymerase 1 (Homo sapiens, UniProt P09874); experiment: Binding affinity to PARP1 in human MDA-MB-468 cells assessed as increase in thermal stability at 5 uM by cellular thermal shift assay; type: cell-based
MDA-MB-468 [26] = experiment: Cell cycle arrest in human MDA-MB-468 cells assessed as accumulation at G2/M phase at 20 uM incubated for 72 hrs by propidium iodide staining-based flow cytometry analysis (reference value: 16.1%); type: functional
[27] = AUC (0 to infinity) in Sprague-Dawley rat at 1 mg/kg, iv; type: ADME, organism-based; set-up: time infinity, dose 1 mg/kg, route iv; conditions: in vivo
MDA-MB-468 [28] = experiment: Induction of apoptosis in human MDA-MB-468 cells assessed as late apoptotic cells at 10 uM incubated for 72 hrs by annexin V/propidium iodide staining-based flow cytometry analysis (reference value: 1.34%); type: functional
MDA-MB-468 [29] = experiment: Induction of apoptosis in human MDA-MB-468 cells assessed as late apoptotic cells at 20 uM incubated for 72 hrs by annexin V/propidium iodide staining-based flow cytometry analysis (reference value: 1.34%); type: functional
[30] = Toxicity in BALB/c nude mouse xenografted with human MDA-MB-468 cells assessed as morphological changes in liver at 80 mg/kg, ig administered daily for 16 days measured every 3 days by hematoxyin-eosin staining based analysis; type: organism-based; conditions: in vivo, po, 384 h, time 16 day
[31] = Toxicity in BALB/c nude mouse xenografted with human MDA-MB-468 cells assessed as morphological changes in spleen at 80 mg/kg, ig administered daily for 16 days measured every 3 days by hematoxyin-eosin staining based analysis; type: organism-based; conditions: in vivo, po, 384 h, time 16 day
[32] = molecular target: T1, Bromodomain-containing protein 4; experiment: Binding affinity to BRD4 in human MDA-MB-468 cells assessed as increase in thermal stability at 5 uM by cellular thermal shift assay; type: cell-based
MDA-MB-231 [33] = experiment: Antitumor activity against human MDA-MB-231 cells xenografted in BALB/c nude mouse assessed as downregulation of c-Myc at 80 mg/kg by Western blot analysis; type: functional, organism-based
MDA-MB-468 [34] = experiment: Induction of apoptosis in human MDA-MB-468 cells assessed as early apoptotic cells at 5 uM incubated for 72 hrs by annexin V/propidium iodide staining-based flow cytometry analysis (reference value: 4.07%); type: functional
MDA-MB-231 [35] = experiment: Antitumor activity against human MDA-MB-231 cells xenografted in BALB/c nude mouse assessed as reduction in PAR expression at 40 to 80 mg/kg incubated for 30 to 40 mins by immunohistochemical analysis; type: functional, organism-based; conditions: dose 40-80 mg/kg, time 30-40 min
[36] = Toxicity in BALB/c nude mouse xenografted with human MDA-MB-468 cells assessed as change in body weight at 80 mg/kg, ig administered daily for 16 days measured every 3 days; type: organism-based; conditions: in vivo, po, 384 h, time 16 day

Poly [ADP-ribose] polymerase 1, sequence (P09874 whole entry): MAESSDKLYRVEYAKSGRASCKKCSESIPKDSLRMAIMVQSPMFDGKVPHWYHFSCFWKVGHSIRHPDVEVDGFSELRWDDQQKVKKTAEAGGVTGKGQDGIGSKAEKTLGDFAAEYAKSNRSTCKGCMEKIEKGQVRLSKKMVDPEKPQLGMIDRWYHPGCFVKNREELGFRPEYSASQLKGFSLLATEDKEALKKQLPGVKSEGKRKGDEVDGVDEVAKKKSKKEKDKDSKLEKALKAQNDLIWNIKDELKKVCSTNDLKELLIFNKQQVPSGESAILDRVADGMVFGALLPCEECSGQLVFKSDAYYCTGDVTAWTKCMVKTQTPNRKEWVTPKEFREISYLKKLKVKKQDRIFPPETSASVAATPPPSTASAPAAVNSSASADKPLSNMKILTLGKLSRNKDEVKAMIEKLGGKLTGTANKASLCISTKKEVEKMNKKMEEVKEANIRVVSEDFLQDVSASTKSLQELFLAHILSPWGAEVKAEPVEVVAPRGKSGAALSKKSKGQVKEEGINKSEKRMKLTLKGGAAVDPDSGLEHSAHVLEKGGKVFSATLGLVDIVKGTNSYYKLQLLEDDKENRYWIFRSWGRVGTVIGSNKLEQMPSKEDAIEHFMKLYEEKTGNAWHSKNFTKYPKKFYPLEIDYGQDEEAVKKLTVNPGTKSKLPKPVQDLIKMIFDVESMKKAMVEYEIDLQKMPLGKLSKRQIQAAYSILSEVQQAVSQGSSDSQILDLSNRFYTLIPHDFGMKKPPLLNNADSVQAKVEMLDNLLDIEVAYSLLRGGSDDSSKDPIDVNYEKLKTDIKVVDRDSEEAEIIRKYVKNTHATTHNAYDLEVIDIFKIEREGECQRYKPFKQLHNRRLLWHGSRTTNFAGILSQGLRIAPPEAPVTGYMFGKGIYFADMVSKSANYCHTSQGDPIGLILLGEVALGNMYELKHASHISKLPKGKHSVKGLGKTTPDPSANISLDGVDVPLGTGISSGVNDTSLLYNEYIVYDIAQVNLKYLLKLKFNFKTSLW

Question: For COc1cc(OC)c2c(=O)[nH]c(-c3cccc(Cc4n[nH]c(=O)c5ccccc45)c3)nc2c1, which Activity (MDA-MB-468 [1]) is on record?
Answer: Its Activity is 62.3%.

Question: What about the Activity (MDA-MB-468 [2]) of the same compound?
Answer: Its Activity is 22.8%.

Question: What about the Activity (MDA-MB-231 [3]) of the same compound?
Answer: The Activity was “Active”.

Question: What about the Activity [4] of the same compound?
Answer: Its Activity is “Non-Toxic”.

Question: What about the Activity (MDA-MB-468 [5]) of the same compound?
Answer: The Activity was “Active”.

Question: And the Activity (MDA-MB-468 [6])?
Answer: The Activity was “Active”.

Question: And the IC50 [7]?
Answer: Its IC50 is 238 nM.

Question: And the Vz [8]?
Answer: Its Vz is 21.1 L/kg.

Question: And the IC50 (MDA-MB-468 [9])?
Answer: Its IC50 is 3010 nM.

Question: And the Activity (MDA-MB-231 [10])?
Answer: Its Activity is “Active”.

Question: What about the Activity (MDA-MB-468 [11]) of the same compound?
Answer: Its Activity is “Active”.

Question: What about the Activity (MDA-MB-231 [12]) of the same compound?
Answer: The Activity was “Active”.

Question: What about the Activity (MDA-MB-468 [13]) of the same compound?
Answer: Its Activity is 25.61%.

Question: What about the IC50 [14] of the same compound?
Answer: The IC50 was 175 nM.

Question: What about the Activity (MDA-MB-231 [15]) of the same compound?
Answer: The Activity was “Active”.

Question: What about the Activity (MDA-MB-468 [16]) of the same compound?
Answer: The Activity was “Dde”.

Question: What about the Activity (MDA-MB-468 [17]) of the same compound?
Answer: The Activity was 63.2%.

Question: And the inhibition (MDA-MB-468 [18])?
Answer: The inhibition was “Active”.

Question: What about the half-life [19] of the same compound?
Answer: Its half-life is 3.33 h.

Question: And the bioavailability [20]?
Answer: The bioavailability was 23.8%.

Question: What about the inhibition [21] of the same compound?
Answer: The inhibition was 76.2%.

Question: And the Activity [22]?
Answer: The Activity was “Non-Toxic”.

Question: And the TGI (MDA-MB-468 [23])?
Answer: The TGI was 68.7%.

Question: And the Activity (MDA-MB-468 [24])?
Answer: The Activity was “Dde”.

Question: What about the Activity [25] of the same compound?
Answer: The Activity was “Active”.

Question: And the Activity (MDA-MB-468 [26])?
Answer: Its Activity is 14%.

Question: What about the AUC(0-inf) [27] of the same compound?
Answer: Its AUC(0-inf) is 642 ng·h/mL.

Question: And the Activity (MDA-MB-468 [28])?
Answer: Its Activity is 4.94%.

Question: And the Activity (MDA-MB-468 [29])?
Answer: The Activity was 6.18%.

Question: What about the Activity [30] of the same compound?
Answer: Its Activity is “Non-Toxic”.

Question: What about the Activity [31] of the same compound?
Answer: The Activity was “Non-Toxic”.

Question: And the Activity [32]?
Answer: The Activity was “Active”.

Question: What about the Activity (MDA-MB-231 [33]) of the same compound?
Answer: Its Activity is “Active”.

Question: And the Activity (MDA-MB-468 [34])?
Answer: The Activity was 21.47%.

Question: What about the Activity (MDA-MB-231 [35]) of the same compound?
Answer: The Activity was “Active”.

Question: And the Activity [36]?
Answer: The Activity was “Non-Toxic”.
